From patent publication US20230322706A1, “NOVEL BIARYL DERIVATIVE USEFUL AS DIACYLGLYCEROL ACYLTRANSFERASE 2 INHIBITOR, AND USE THEREOF” (LG CHEM, LTD., priority 2020, published 2023) come the findings set out here.

The target in the assay is human DGAT2 (Homo sapiens (Human), UniProt Q96PD7). Kind of assay: Measurement of inhibitory effect against DGAT2 enzyme activity (SPA, Phospholipid FlashPlate, [14C]-TG production). The class given is biochemical. The note with it: recombinant human DGAT2 membrane protein from Sf-21 cells; inhibition of [14C]-TG production; 37° C. The source says: Experimental Example: Measurement of Inhibitory Effect Against DGAT2 Enzyme Activity
1. Preparation of DGAT2 Expression Vector
In order to prepare the pBacPAK9-DGAT2, which is DGAT2 expression vector, the human DGAT2 gene amplified by polymerase chain reaction (PCR) was cloned into the EcoR1 and Xho1 sites of the pBacPAK9 (clonctech) vector. The nucleotide sequence of the primers used in PCR was the forward primer 5′ […] and the reverse primer 5′ […]. The composition of the reaction solution was to contain 50 ng of cDNA clone (OriGene), 200 μM of dATP, dCTP, dTTP, dGTP, 200 nM of each primer, 1 unit of Tag DNA Polymerase (Toyobo), 1x PCR buffer, and the final volume was adjusted to 20 μl. The reaction conditions were denatured at 95° C. for 5 minutes, followed by 30 times of 94° C. for 20 seconds, 60° C. for 20 seconds, and 72° C. for 90 seconds, followed by further reaction at 72° C. for 7 minutes.
2. DGAT2 Expression and Preparation of Membrane Protein
Recombinant human DGAT2 protein was expressed in Sf-21 cells, which are insect cells, by using the BacPack baculovirus expression system (Clontech). The brief manufacturing process is as follows. First, the pBacPAK9-DGAT2 expression vector was transfected with BacPAK6 virus DNA (Bsu36I digest) into sf21 cells using Bacfectin to prepare a recombinant DGAT2 expressing baculovirus. The thus prepared baculovirus was infected with Sf-21 cells at 10 MOI (multiplicity of infection), and after 72 hours, infected insect cells were collected and membrane proteins were isolated. For membrane protein separation, the cell pellet was dissolved in a sucrose solution containing 250 mM sucrose, 10 mM Tris (pH 7.4), and 1 mM ethylenediamine-tetraacetic acid (EDTA), and then homogenized by using a dounce homogenizer, and the supernatant was taken by centrifuging at 600×g for 15 minutes, and centrifuged at 100,000×g for 1 hour to discard the supernatant, and the remaining pellet was resuspended in 20 mM HEPES buffer (pH 7.4). The prepared DGAT2 overexpressing membrane protein was dispensed in 100 μl and stored at −80° C. until use. Protein concentration was quantified by using the BCA Protein Assay Kit (Thermo Scientific).
3. Measurement of Inhibitory Effect Against DGAT2 Enzyme Activity
In vitro DGAT2 analysis was performed using a Phospholipid Flash Plate (PerkinElmer) based on the principle of SPA (Scintilation Proximity Assay). First, DGAT2 inhibition compounds serially diluted 5 times from 3 nM to 10 μM (final concentration, 1% DMSO) were mixed in a buffer solution containing 2 μg DGAT2-membrane protein and 20 mM HEPES, 20 mM MgCl2, 1 mg/mL BSA, 50 μM 1,2 sn-oleoyl glycerol (Sigma), put in a 96-well flash plate (FlashPlate) and reacted at 37° C. for 20 minutes, and then 1 μM [14C] ole oil CoA (PerkinElmer, NEC651050UC) was added to be a final volume of 100 μL and further reacted at 37° C. for 15 minutes. After the enzymatic reaction was completed, 100 μL of isopropanol was added, the plate was sealed with a film, and the plate was shaken slowly in a plate shaker. The next day, the amplified scintillation signal (cpm) in Topcounter (Packard) was measured to measure the degree of production of [14C]-labeled triacyl glycerol (TG) as a reaction product. The measured value when the compound was not treated was used as a positive control, and the measured value of the compound treated group was calculated as a relative % to measure the inhibition effect of the compound on TG production. The IC50 value, which is the concentration of the compound that inhibits TG production by 50%, was determined by treating the response value according to the compound concentration with a nonlinear regression curve using PRISM (Graphpad Inc.).

The structures appear in SMILES notation.

human DGAT2, sequence (Q96PD7 whole entry): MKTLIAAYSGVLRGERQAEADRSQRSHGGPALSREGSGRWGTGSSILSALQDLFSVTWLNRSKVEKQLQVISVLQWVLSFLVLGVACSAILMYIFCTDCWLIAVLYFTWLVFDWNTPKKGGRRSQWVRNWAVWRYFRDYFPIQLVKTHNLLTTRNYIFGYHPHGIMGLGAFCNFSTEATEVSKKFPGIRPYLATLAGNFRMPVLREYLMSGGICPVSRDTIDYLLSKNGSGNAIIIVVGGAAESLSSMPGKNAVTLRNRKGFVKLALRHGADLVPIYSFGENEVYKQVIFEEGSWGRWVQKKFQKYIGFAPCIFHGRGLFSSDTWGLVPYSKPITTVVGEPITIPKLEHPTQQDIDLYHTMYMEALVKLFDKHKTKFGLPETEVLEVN

For the compound `CCOc1ccccc1Oc1cccc(-c2cncc(NC(=O)CCc3ccc(OC(C)(C)C(=O)O)cc3)n2)c1` [Example 13, 2-(4-(3-((6-(3-(2-ethoxyphenoxy)phenyl)pyrazin-2-yl)amino)-3-oxopropyl)phenoxy)-2-methylpropanoic acid], the 50% inhibitory concentration (IC50) is 0.33 µM.
Consider `CCOc1ccccc1Oc1cncc(-c2cncc(NC(=O)Cc3ccc(CC(C)(C)C(=O)O)cc3)n2)c1` [Example 7, 3-(4-(2-((6-(5-(2-ethoxyphenoxy)pyridin-3-yl)pyrazin-2-yl)amino)-2-oxoethyl)phenyl)-2,2-dimethylpropanoic acid], for which the IC50 is 0.036 µM.
For `CCOc1ccccc1Oc1cncc(-c2cncc(NC(=O)Cc3ccc(CC(=O)OC)cc3)n2)c1` [Example 2, methyl 2-(4-(2-((6-(5-(2-ethoxyphenoxy)pyridin-3-yl)pyrazin-2-yl)amino)-2-oxoethyl)phenyl)acetate], the IC50 is 0.027 µM.
The result for `CCOc1ccccc1Oc1cncc(-c2cncc(NC(=O)CCc3ccccc3)n2)c1` [Example 1, N-(6-(5-(2-ethoxyphenoxy)pyridin-3-yl)pyrazin-2-yl)-3-phenylpropanamide] reads 0.035 µM; that for `CCOc1cccnc1Oc1cccc(-c2cncc(NC(=O)Cc3ccc(CC(C)(C)C(=O)O)cc3)n2)c1` [Example 27, 3-(4-(2-((6-(3-((3-ethoxypyridin-2-yl)oxy)phenyl)pyrazin-2-yl)amino)-2-oxoethyl)phenyl)-2,2-dimethylpropanoic acid], 0.0074 µM.
Take `CCOc1ccccc1Oc1cccc(-c2cncc(Nc3cccc(-c4cccc(CC(C)(C)C(=O)O)c4)n3)n2)n1` [Example 25, 3-(3-(6-((6-(6-(2-ethoxyphenoxy)pyridin-2-yl)pyrazin-2-yl)amino)pyridin-2-yl)phenyl)-2,2-dimethylpropanoic acid]: the IC50 worked out at 0.45 µM.
Next, `CCOc1ccccc1Oc1cccc(-c2cncc(Nc3nccc(N4CCC[C@@H](C(=O)O)C4)n3)n2)n1` [Example 24, (R)-1-(2-((6-(6-(2-ethoxyphenoxy)pyridin-2-yl)pyrazin-2-yl)amino)pyrimidin-4-yl)piperidine-3-carboxylic acid]: 7.4 µM; `CCOc1cccnc1Oc1cccc(-c2cncc(NC(=O)C(C)(C)c3ccc(CC(C)(C)C(=O)O)cc3)n2)c1` [Example 29, 3-(4-(1-((6-(3-((3-ethoxypyridin-2-yl)oxy)phenyl)pyrazin-2-yl)amino)-2-methyl-1-oxopropane-2-yl)phenyl)-2,2-dimethylpropanoic acid]: 0.0067 µM; `CCOc1ccccc1Oc1cncc(-c2cncc(Nc3nccc(N4CCC[C@@H](C(=O)O)C4)n3)n2)c1` [Example 8, (R)-1-(2-((6-(5-(2-ethoxyphenoxy)pyridin-3-yl)pyrazin-2-yl)amino)pyrimidin-4-yl)piperidine-3-carboxylic acid]: 1.8 µM.
With `CCOc1ccccc1Oc1cccc(-c2cncc(Nc3nccc(-c4ccc(CC(=O)O)cc4)n3)n2)c1` [Example 20, 2-(4-(2-((6-(3-(2-ethoxyphenoxy)phenyl)pyrazin-2-yl)amino)pyrimidin-4-yl)phenyl)acetic acid], the IC50 came out at 3.9 µM.
Turning to `CCOc1ccccc1Oc1cncc(-c2cncc(NC(=O)CCc3ccc(C(C)(C)C(=O)OC)cc3)n2)c1` [Example 5, methyl 2-(4-(3-((6-(5-(2-ethoxyphenoxy)pyridin-3-yl)pyrazin-2-yl)amino)-3-oxopropyl)phenyl)-2-methylpropanoate], the IC50 was found to be 0.011 µM.
Turning to `CCOc1cccnc1Oc1cccc(-c2cncc(Nc3nccc(N4CCC[C@@H](C(=O)O)C4)n3)n2)c1` [Example 31, (R)-1-(2-((6-(3-((3-ethoxypyridin-2-yl)oxy)pheny)pyrazin-2-yl)amino)pyrimidin-4-yl)piperidine-3-carboxylic acid], the IC50 amounted to 9.2 µM.
For `CCOc1cccnc1Oc1cccc(-c2cncc(NC(=O)CCc3ccc(OC(C)(C)C(=O)O)cc3)n2)c1` [Example 28, 2-(4-(3-((6-(3-((3-ethoxypyridin-2-yl)oxy)phenyl)pyrazin-2-yl)amino)-3-oxopropyl)phenoxy)-2-methylpropanoic acid], the IC50 stood at 0.21 µM.
On to `CCOc1ccccc1Oc1cncc(-c2cncc(NC(=O)Cc3ccc(CC(=O)O)cc3)n2)c1` [Example 3, 2-(4-(2-((6-(5-(2-ethoxyphenoxy)pyridin-3-yl)pyrazin-2-yl)amino)-2-oxoethyl)phenyl)acetic acid], for which the IC50 worked out at 3.4 µM.
Next, `CCOc1ccccc1Oc1cccc(-c2cncc(Nc3nccc(O[C@H]4CC[C@H](C(=O)O)CC4)n3)n2)c1` [Example 21, (1r,4r)-4-((2-((6-(3-(2-ethoxyphenoxy)phenyl)pyrazin-2-yl)amino)pyrimidin-4-yl)oxy)cyclohexane-1-carboxylic acid]: 1.2 µM.
For the compound `CCOc1cccnc1Oc1cccc(-c2cncc(Nc3cccc(-c4cccc(CC(C)(C)C(=O)O)c4)n3)n2)c1` [Example 32, 3-(3-(6-((6-(3-((3-ethoxypyridin-2-yl)oxy)phenyl)pyrazin-2-yl)amino)pyridin-2-yl)phenyl)-2,2-dimethylpropanoic acid], the IC50 came to 0.07 µM.
Turning to `CCOc1ccccc1Oc1cccc(-c2cncc(NC(=O)Cc3ccc(CC(C)(C)C(=O)O)cc3)n2)n1` [Example 23, 3-(4-(2-((6-(6-(2-ethoxyphenoxy)pyridin-2-yl)pyrazin-2-yl)amino)-2-oxoethyl)phenyl)-2,2-dimethylpropanoic acid], the IC50 came out at 0.061 µM.
Regarding `CCOc1ccccc1Oc1cccc(-c2cncc(NC(=O)Cc3ccc(OC(C)(C)C(=O)O)cc3)n2)c1` [Example 19], the IC50 was 0.43 µM.
Regarding `CCOc1ccccc1Oc1cccc(-c2cncc(NC(=O)Cc3ccc(CC(C)(C)C(=O)O)cc3)n2)c1` [Example 15, 3-(4-(2-((6-(3-(2-ethoxyphenoxy)phenyl)pyrazin-2-yl)amino)-2-oxoethyl)phenyl)-2,2-dimethylpropanoic acid], the IC50 is 0.013 µM.
On to `CCOc1ccccc1Oc1cncc(-c2cncc(Nc3cccc(-c4cccc(CC(C)(C)C(=O)O)c4)n3)n2)c1` [Example 9, 3-(3-(6-((6-(5-(2-ethoxyphenoxy)pyridin-3-yl)pyrazin-2-yl)amino)pyridin-2-yl)phenyl)-2,2-dimethylpropanoic acid], for which the IC50 was determined as 0.16 µM.
Take `CCOc1ccccc1Oc1cccc(-c2cncc(NC(=O)C(C)(C)c3ccc(CC(C)(C)C(=O)O)cc3)n2)c1` [Example 18, 3-(4-(1-((6-(3-(2-ethoxyphenoxy)phenyl)pyrazin-2-yl)amino)-2-methyl-1-oxopropan-2-yl)phenyl)-2,2-dimethylpropanoic acid]: the IC50 is 0.022 µM.
In the case of `CCOc1cccnc1Oc1cccc(-c2cncc(Nc3nccc(O[C@H]4CC[C@H](C(=O)O)CC4)n3)n2)c1` [Example 33, (1r,4r)-4-((2-((6-(3-((3-ethoxypyridin-2-yl)oxy)phenyl)pyrazin-2-yl)amino)pyrimidin-4-yl)oxy)cyclohexane-1-carboxylic acid], the IC50 stood at 3.4 µM.
Consider `CCOc1ccccc1Oc1cccc(-c2cncc(NC(=O)CCc3ccccc3)n2)n1` [Example 22, N-(6-(6-(2-ethoxyphenoxy)pyridin-2-yl)pyrazin-2-yl)-3-phenylpropanamide], for which the IC50 was found to be 2.1 µM.
Regarding `CCOc1ccccc1Oc1cncc(-c2cncc(NC(=O)CCc3ccc(CC(=O)O)cc3)n2)c1` [Example 4, 2-(4-(3-((6-(5-(2-ethoxyphenoxy)pyridin-3-yl)pyrazin-2-yl)amino)-3-oxopropyl)phenyl)acetic acid], the concentration for half-maximal inhibition (IC50) is 0.29 µM.
